In patent US20250368628A1, “METHODS AND COMPOUNDS FOR MODULATING INHERITED GENETIC DISEASES” (Design Therapeutics, Inc., priority 2022, published 2025):

Columns and labels:
[1] = test system: Myotonic Dystrophy 1 affected patient fibroblasts (Coriel GM04602; 1600 CTG repeats); experiment: DM1 foci reduction assay (EC50 assay; CAG10-Cy3 FISH, foci per nucleus); format: cell-based; conditions: Homo sapiens, Fibroblast; DM1 patient fibroblasts, 48 h treatment, foci per nucleus; read-out: DM1 EC50, 48 h
Summary of the method: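 GM04602 DM1 patient fibroblasts (1600 CTG repeats) seeded 24 h, then treated 48 h at 37 °C with an 8-point 1:3 dose series from 3 μM. Cells PFA-fixed, ethanol-permeabilized and hybridized overnight with 5 nM CAG10-Cy3 probe, DAPI counterstained. Imaged at 20×, 4 fields per well, as average foci per nucleus.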

F35T cells = experiment: Foci reduction in FECD (CAG10-Cy3 FISH, foci per nucleus); format: cell-based; conditions: F35T cells, 48 h treatment, foci per nucleus; read-out: FECD EC50, 48 h
Summary of the method: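 F35T cells, 5000 per well, were treated for 48 h at 37 °C, 5% CO2 in an 8-point dose response. Cells were then fixed in 4% PFA, permeabilized in 70% ethanol and hybridized overnight at 37 °C with a CAG10-Cy3 probe in 30% formamide/2×SSC. After DAPI staining, imaging gave foci per nucleus.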

| Structure (SMILES) | EC50 [1] [nM] | EC50 (F35T cells) [nM] |
| --- | --- | --- |
| COCCOCCOCCOCCOCCOCCC(=O)NCCCCCCn1cc(NC(=O)c2nc(NC(=O)CCNC(=O)c3cc(NC(=O)c4nccn4C)cn3C)cn2C)cc1C(=O)NCCCC(=O)Nc1cn(C)c(C(=O)NCCC(=O)Nc2cc(C(=O)Nc3cn(C)c(C(=O)NCCCN(C)CCCNC(=O)c4cccc(C(=O)O)c4)n3)n(C)c2)n1 [Compound B-237] | 500 to 1000 | 100 to 500 |
| COCCOCCOCCOCCOCCOCCC(=O)NCCCCCCn1cc(NC(=O)c2nc(NC(=O)CCNC(=O)c3cc(NC(=O)c4nccn4C)cn3C)cn2C)cc1C(=O)NCCCC(=O)Nc1cn(C)c(C(=O)NCCC(=O)Nc2cc(C(=O)Nc3cn(C)c(C(=O)NCCC(=O)N4CCC(C#CC#CC5CCN(C(C)=O)CC5)CC4)n3)n(C)c2)n1 [Compound B-239] | 100 to 500 | 100 to 500 |
| COCCOCCOCCOCCOCCOCCC(=O)NCCCCCCn1cc(NC(=O)c2nc(NC(=O)CCNC(=O)c3cc(NC(=O)c4nccn4C)cn3C)cn2C)cc1C(=O)NCCCC(=O)Nc1cn(C)c(C(=O)NCCC(=O)Nc2cc(C(=O)Nc3cn(C)c(C(=O)NCCC(=O)N4CCC(C#CC#CC5CCNCC5)CC4)n3)n(C)c2)n1 [Compound B-240] | 100 to 500 | < 100 |
| COCCOCCOCCOCCN(CCCNC(=O)CCNC(=O)c1nc(NC(=O)c2cc(NC(=O)CCNC(=O)c3nc(NC(=O)CCCNC(=O)c4cc(NC(=O)c5nc(NC(=O)CCNC(=O)c6cc(NC(=O)c7nccn7C)cn6C)cn5C)cn4C)cn3C)cn2C)cn1C)CCOCCOCCOCCOC [Compound B-241] | 100 to 500 | 100 to 500 |
| Cn1cc(NC(=O)c2nc(NC(=O)CCNC(=O)c3cc(NC(=O)c4nccn4C)cn3C)cn2C)cc1C(=O)NCCCC(=O)Nc1cn(C)c(C(=O)NCCC(=O)Nc2cc(C(=O)Nc3cn(C)c(C(=O)NCC#Cc4ccccc4)n3)n(C)c2)n1 [Compound B-245] | < 100 | < 100 |
| Cn1cc(NC(=O)c2nc(NC(=O)CCNC(=O)c3cc(NC(=O)c4nccn4C)cn3C)cn2C)cc1C(=O)NCCCC(=O)Nc1cn(C)c(C(=O)NCCC(=O)Nc2cc(C(=O)Nc3cn(C)c(C(=O)NCCCNCC#Cc4ccccc4)n3)n(C)c2)n1 [Compound B-247] | < 100 | < 100 |
| Cn1cc(NC(=O)c2nc(NC(=O)CCNC(=O)c3cc(NC(=O)c4nccn4C)cn3C)cn2C)cc1C(=O)NCCCC(=O)Nc1cn(C)c(C(=O)NCCC(=O)Nc2cc(C(=O)Nc3cn(C)c(C(=O)NCCCNCC#Cc4cccc(C(=O)O)c4)n3)n(C)c2)n1 [Compound B-248] | 100 to 500 | < 100 |
| Cn1cc(NC(=O)c2nc(NC(=O)CCNC(=O)c3cc(NC(=O)c4nccn4C)cn3C)cn2C)cc1C(=O)NCCCC(=O)Nc1cn(C)c(C(=O)NCCC(=O)Nc2cc(C(=O)Nc3cn(C)c(C(=O)NCCCNCC#Cc4ccc(C(=O)O)cc4)n3)n(C)c2)n1 [Compound B-249] | 100 to 500 | < 100 |
| CC(=O)N1CCC(C#CC#CC2CCN(CCCNC(=O)c3nc(NC(=O)c4cc(NC(=O)CCNC(=O)c5nc(NC(=O)CCCNC(=O)c6cc(NC(=O)c7nc(NC(=O)CCNC(=O)c8cc(NC(=O)c9nccn9C)cn8C)cn7C)cn6C)cn5C)cn4C)cn3C)CC2)CC1 [Compound B-251] | < 100 | < 100 |
| CN(CCCNC(=O)c1cccc(C(=O)O)c1)CCCNC(=O)c1cc(NC(=O)CCNC(=O)c2nc(NC(=O)CCCNC(=O)c3cc(NC(=O)c4nc(NC(=O)CCNC(=O)c5cc(NC(=O)c6nccn6C)cn5C)cn4C)cn3CCCCCCN=[N+]=[N-])cn2C)cn1C [Compound B-253] | > 1000 | > 1000 |
| Cn1cc(NC(=O)c2nccn2C)cc1C(=O)NCCC(=O)Nc1cn(C)c(C(=O)Nc2cc(C(=O)NCCCC(=O)Nc3cn(C)c(C(=O)NCCC(=O)Nc4cc(C(=O)Nc5cn(C)c(C(=O)NCCC(=O)N6CCC(C#CC#CC7CCNCC7)CC6)n5)n(C)c4)n3)n(CCCCCCN)c2)n1 [Compound B-256] | 100 to 500 | 100 to 500 |
| COCCOCCOCCOCCN(CCCCCn1cc(NC(=O)c2nc(NC(=O)CCNC(=O)c3cc(NC(=O)c4nccn4C)cn3C)cn2C)cc1C(=O)NCCCC(=O)Nc1cn(C)c(C(=O)NCCC(=O)Nc2cc(C(=O)Nc3cn(C)c(C(=O)NCCC(=O)N4CCC(C#CC#CC5CCN(C(C)=O)CC5)CC4)n3)n(C)c2)n1)CCOCCOCCOCCOC [Compound B-257] | 100 to 500 | 100 to 500 |
| COCCOCCOCCOCCN(CCCCCn1cc(NC(=O)c2nc(NC(=O)CCNC(=O)c3cc(NC(=O)c4nccn4C)cn3C)cn2C)cc1C(=O)NCCCC(=O)Nc1cn(C)c(C(=O)NCCC(=O)Nc2cc(C(=O)Nc3cn(C)c(C(=O)NCCC(=O)N4CCC(C#CC#CC5CCNCC5)CC4)n3)n(C)c2)n1)CCOCCOCCOCCOC [Compound B-258] | 500 to 1000 | 500 to 1000 |
| COCCOCCOCCOCCN(CCOCCOCCOCCOC)C(=O)CCCCn1cc(NC(=O)c2nc(NC(=O)CCNC(=O)c3cc(NC(=O)c4nccn4C)cn3C)cn2C)cc1C(=O)NCCCC(=O)Nc1cn(C)c(C(=O)NCCC(=O)Nc2cc(C(=O)Nc3cn(C)c(C(=O)NCCC(=O)N4CCC(C#CC#CC5CCNCC5)CC4)n3)n(C)c2)n1 [Compound B-260] | 100 to 500 | 100 to 500 |
| CN(CCCC#Cc1cccc(C(=O)O)c1)CCCNC(=O)c1nc(NC(=O)c2cc(NC(=O)CCNC(=O)c3nc(NC(=O)CCCNC(=O)c4cc(NC(=O)c5nc(NC(=O)CCNC(=O)c6cc(NC(=O)c7nccn7C)cn6C)cn5C)cn4C)cn3C)cn2C)cn1C [Compound B-263] | 100 to 500 | < 100 |
| CCCNC(=O)CCNC(=O)c1nc(NC(=O)c2cc(NC(=O)CCNC(=O)c3nc(NC(=O)CCCNC(=O)c4cc(NC(=O)c5nc(NC(=O)CCNC(=O)c6cc(NC(=O)c7nccn7C)cn6C)cn5C)cn4CCN=[N+]=[N-])cn3C)cn2C)cn1C [Compound B-264] | < 100 | < 100 |
| CCCNC(=O)CCNC(=O)c1nc(NC(=O)c2cc(NC(=O)CCNC(=O)c3nc(NC(=O)CCCNC(=O)c4cc(NC(=O)c5nc(NC(=O)CCNC(=O)c6cc(NC(=O)c7nccn7C)cn6C)cn5C)cn4CCN)cn3C)cn2C)cn1C [Compound B-265] | 100 to 500 | 100 to 500 |
| CC(=O)N1CCC(C#CC#CC2CCN(C(=O)CCNC(=O)c3nc(NC(=O)c4cc(NC(=O)CCNC(=O)c5nc(NC(=O)CCCNC(=O)c6cc(NC(=O)c7nc(NC(=O)CCNC(=O)c8cc(NC(=O)c9nccn9C)cn8C)cn7C)cn6CCN)cn5C)cn4C)cn3C)CC2)CC1 [Compound B-266] | < 100 | < 100 |
| Cn1cc(NC(=O)c2nccn2C)cc1C(=O)NCCC(=O)Nc1cn(C)c(C(=O)Nc2cc(C(=O)NCCCC(=O)Nc3cn(C)c(C(=O)NCCC(=O)Nc4cc(C(=O)Nc5cn(C)c(C(=O)NCCC(=O)N6CCC(C#CC#CC7CCNCC7)CC6)n5)n(C)c4)n3)n(CCN)c2)n1 [Compound B-267] | < 100 | < 100 |
| CCCNC(=O)CCNC(=O)c1nc(NC(=O)c2cc(NC(=O)CCNC(=O)c3nc(NC(=O)CCCNC(=O)c4cc(NC(=O)c5nc(NC(=O)CCNC(=O)c6cc(NC(=O)c7nccn7C)cn6C)cn5C)cn4CCNC(C)=O)cn3C)cn2C)cn1C [Compound B-268] | 100 to 500 | < 100 |
| CC(=O)NCCn1cc(NC(=O)c2nc(NC(=O)CCNC(=O)c3cc(NC(=O)c4nccn4C)cn3C)cn2C)cc1C(=O)NCCCC(=O)Nc1cn(C)c(C(=O)NCCC(=O)Nc2cc(C(=O)Nc3cn(C)c(C(=O)NCCC(=O)N4CCC(C#CC#CC5CCN(C(C)=O)CC5)CC4)n3)n(C)c2)n1 [Compound B-269] | 100 to 500 | < 100 |
| CC(=O)NCCn1cc(NC(=O)c2nc(NC(=O)CCNC(=O)c3cc(NC(=O)c4nccn4C)cn3C)cn2C)cc1C(=O)NCCCC(=O)Nc1cn(C)c(C(=O)NCCC(=O)Nc2cc(C(=O)Nc3cn(C)c(C(=O)NCCC(=O)N4CCC(C#CC#CC5CCNCC5)CC4)n3)n(C)c2)n1 [Compound B-270] | > 1000 | 500 to 1000 |
| CCCNC(=O)CCNC(=O)c1nc(NC(=O)c2cc(NC(=O)CCNC(=O)c3nc(NC(=O)CCCNC(=O)c4cc(NC(=O)c5nc(NC(=O)CCNC(=O)c6cc(NC(=O)c7nccn7C)cn6C)cn5C)cn4CCCN=[N+]=[N-])cn3C)cn2C)cn1C [Compound B-271] | < 100 | < 100 |
| CCCNC(=O)CCNC(=O)c1nc(NC(=O)c2cc(NC(=O)CCNC(=O)c3nc(NC(=O)CCCNC(=O)c4cc(NC(=O)c5nc(NC(=O)CCNC(=O)c6cc(NC(=O)c7nccn7C)cn6C)cn5C)cn4CCCN)cn3C)cn2C)cn1C [Compound B-272] | 100 to 500 | < 100 |
| CCCNC(=O)CCNC(=O)c1nc(NC(=O)c2cc(NC(=O)CCNC(=O)c3nc(NC(=O)CCCNC(=O)c4cc(NC(=O)c5nc(NC(=O)CCNC(=O)c6cc(NC(=O)c7nccn7C)cn6C)cn5C)cn4CCCCN=[N+]=[N-])cn3C)cn2C)cn1C [Compound B-278] | < 100 | < 100 |
| CCCNC(=O)CCNC(=O)c1nc(NC(=O)c2cc(NC(=O)CCNC(=O)c3nc(NC(=O)CCCNC(=O)c4cc(NC(=O)c5nc(NC(=O)CCNC(=O)c6cc(NC(=O)c7nccn7C)cn6C)cn5C)cn4CCCCN)cn3C)cn2C)cn1C [Compound B-279] | < 100 | < 100 |
| CC(=O)N1CCC(C#CC#CC2CCN(C(=O)CCNC(=O)c3nc(NC(=O)c4cc(NC(=O)CCNC(=O)c5nc(NC(=O)CCCNC(=O)c6cc(NC(=O)c7nc(NC(=O)CCNC(=O)c8cc(NC(=O)c9nccn9C)cn8C)cn7C)cn6CCCCN)cn5C)cn4C)cn3C)CC2)CC1 [Compound B-280] | < 100 | < 100 |
| Cn1cc(NC(=O)c2nccn2C)cc1C(=O)NCCC(=O)Nc1cn(C)c(C(=O)Nc2cc(C(=O)NCCCC(=O)Nc3cn(C)c(C(=O)NCCC(=O)Nc4cc(C(=O)Nc5cn(C)c(C(=O)NCCC(=O)N6CCC(C#CC#CC7CCNCC7)CC6)n5)n(C)c4)n3)n(CCCCN)c2)n1 [Compound B-281] | < 100 | < 100 |
